Read-outs that look alike come from different tables or passages of the source.

This is an account of results in patent publication US10220024B2, “Method of inhibiting cancer cell, method for detecting cancer cell, and system for detecting cancer cell” (CANON KABUSHIKI KAISHA, priority 2012, dated 2019).

For data set [1], the system named is K562 ALDH (−) fraction (general cancer cells). Nature of the data set: Cancer stem-cell selective inhibitory action against chronic myelocytic leukemia cells, ALDH (−) fraction, CellTiter-Glo. It counts as cell-based, Human. To be noted: Homo sapiens, 24 hours, relative to 0.1% DMSO, read-out: ALDH(−) (growth rate). The essentials:
(§1)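 ALDEFLUOR-sorted K562 fractions, ALDH (+) with ≥80% stem cells and ALDH (−), cultured 24 h at 37° C. with compound at the stated final concentrations. Viable cells counted by CellTiter-Glo luminescence. Growth is expressed relative to 0.1% DMSO control […], and scored as ALDH (+) and ALDH (+)/ALDH (−) categories.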

The nature of data set [2]: Measurement of fluorescent property of compound (spectrofluorometer). Conditions: 5 μM DMSO solution. It counts as physicochemical. As to the method: The excitation wavelength and fluorescence wavelength of the compound were measured by a FL4500 spectrofluorometric measuring machine manufactured by Hitachi High-Technologies Corporation.
Another data set relates to K562 ALDH (+) cells. As to the kind of experiment: Cancer stem-cell selective staining, fluorescent microscopy, ALDH (+) cells. It counts as cell-based, Human. As to the method:
The cells cultured for 24 hours in Experimental Example 16 were subjected to nuclear staining with Hoechest33342 (manufactured by Dojindo Laboratories) and a fluorescent image observed under AXIOVERT200M inverted fluorescent microscope (manufactured by Carl Zeiss) was photographed.

The subject of data set [3] is Human pancreas cancer cells, KLM-1. Nature of the data set: Cancer cell inhibitory (growth suppressive) action against pancreatic cancer cells, CellTiter-Glo viable cell count. It counts as cell-based. Conditions: KLM1, KLM-1, 10 μg/mL, 24 hours. As to the method:
Observation on cancer cell inhibitory (growth suppressive) action against pancreatic cancer cells Human pancreas cancer cells, KLM-1, were pre-cultured in RPMI1640 medium containing 10% FBS at 37° C. in a 5% CO2 ambient. Thereafter, 4,000 cells were seeded per well of a 96-well plate and further cultured for 24 hours. Subsequently, Compound (1) was added to the medium so as to obtain a final concentration of 10 μg/mL and cultured at 37° C. for 24 hours in a 5% CO2 ambient. The cultured cells were analyzed for viable cell count according to CellTiter-Glo Luminescent Cell Viability Assay (manufactured by Promega KK.). As a reference, the number of cells cultured in a medium containing a 0.1% dimethylsulfoxide solution (hereinafter, simply referred to as DMSO) in place of a medium containing Compound (1), in the aforementioned operation, was regarded (100%).
Viable cell count was analyzed in the same manner as in Experimental Example 1 except that Compound (1) of Experimental Example 1 was changed to compounds shown in Table 2.
Viable cell count was analyzed in the same manner as in Experimental Example 1 except that Compound (1) was changed to comparative compounds 1 to 4.
Viable cell counts of Experimental Examples 1 to 7 and Comparative Examples 1 to 4 were analyzed to obtain growth rates.
Evaluation of cancer cell inhibition against the pancreatic cancer cells (KLM-1) (growth suppression) was made based on the following criteria. Note that the growth rate in Examples herein is a numerical value of the number of cells obtained after culture relative to the number of cells (regarded as 100) grown in a medium containing 0.1% DMSO. Evaluation of cancer cell inhibition against the pancreatic cancer cells (KLM-1) was made as follows. • A: Cancer cell growth rate is less than 20% (cancer cell inhibitory (growth suppressive) effect is extremely high) • B: Cancer cell growth rate is 20% or more and less than 50% (cancer cell inhibitory (growth suppressive) effect is high) • C: Cancer cell growth rate is 50% or more (cancer cell inhibitory (growth suppressive) effect is low)
In general terms: Cellular ATP, detected with luciferase, serves as a proxy for viable cell number.

The test system of data set [4] is K562 ALDH (+) fraction (cancer stem cells). Nature of the data set: Cancer stem-cell selective inhibitory action against chronic myelocytic leukemia cells, ALDH (+) fraction, CellTiter-Glo. It counts as cell-based. To be noted: Homo sapiens, 24 hours; for activity at 0.05 µg/mL: 0.05 μg/mL; for activity at 0.5 µg/mL: 0.5 μg/mL; for activity at 1 µg/mL: 1 μg/mL. The essentials: as §1

The mark [5] stands for this setting: read-out: Growth suppression evaluated.
The mark [6] stands for this setting: relative to 0.1% DMSO, read-out: ALDH(+) (growth rate).

As to `COc1ccc(N2c3ccc(/C=C/C4=[N+](C)c5ccccc5C4(C)C)cc3C3CCCC32)cc1` (stereo not drawn) [Compound 11], the activity at 0.05 µg/mL was 77% in data set [1] (0.05 μg/mL), 50 to 95% in data set [4] (setting [5]) and 65% in data set [4] (setting [6]). The activity at 0.5 µg/mL in data set [1] (0.5 μg/mL) is 49%; in data set [4] (setting [5]), < 50%; in data set [4] (setting [6]), 32%. The activity at 1 µg/mL in data set [1] (1 μg/mL) was 22%; in data set [4] (setting [5]) it was < 50%; in data set [4] (setting [6]), 12%. Also, the Excitation wavelength λex in data set [2] amounted to 614 nm. The compound further came in with a Fluorescence wavelength λem in data set [2] of 669 nm. The “Selective staining of cancer stem cells” value in the data set with K562 ALDH (+) cells (ALDH (+) versus ALDH (−) K562 cells) was “selectively stained”. Further, the “ALDH(+) (ratio of ALDH (+) cells stained)” value in the data set with K562 ALDH (+) cells (cells cultured for 24 hours in Experimental Example 16 (1 μg/mL)) was 76.7%. Besides, the activity at 10 µg/mL in data set [3] (read-out: Evaluation (cancer cell growth rate)) was < 20%; in data set [3] (relative to 0.1% DMSO (100), read-out: Cancer cell growth rate (%)) it was 2.6%.
